Entries after “also recorded” stand apart in the source; their conditions may differ.
What was measured:
[1] = test system: human periodontal ligament (HPDL) cells; test: ALP inducing activity of HPDL cells on cell culture system; assay type: cell-based; conditions: for ALP inducing activity of HPDL cells (amelogenins and peptides based on 6 kDa amelogenin): purified porcine amelogenins and synthetic peptides; for ALP activity of HPDL cells (porcine sheath proteins and synthetic peptides): 50 μg/ml protein or peptide, TGF-β1 50 ng/ml, BMP-2 500 ng/ml, 10 nM 1α-25dihydroxy-Vitamin D3
Text: Human periodontal ligament (HPDL) cells were obtained according to the method of Somerman et al., (1988) from healthy premolars which were extracted from the patients for orthodontic reasons. The cells were precultured for 4-6 passages with a-MEM medium to establish the primary cell line. The cells were maintained in the alpha modification of Eagle's medium (α-MEM; Life Technologies, Grand Island, N.Y., USA) containing 10% fetal bovine serum (FBS; Asahi Technoglass, Chiba, Japan) and 1% antibiotics (100 U/ml of Penicillin-G and 100 μg/ml of Streptomycin sulfate; Gibco BRL, Grand Island, N.Y., USA) at 37° C. in a humidified 5% CO2 atmosphere. The ST2 cells (Riken Cell Bank, Tsukuba, Japan), an osteoblast-like mouse bone marrow stromal cell line, were cultured under the same conditions.
HPDL cells were distributed in 96-well plates at a density of approximately 5×10^5 cells per a well and incubated for 24 h. The growth medium was then changed to contain 10 nM of 1α-25dihydroxy-Vitamin D3 (CALBIOCHEM, La Jolla, Calif.) and 50 μg/ml (final concentration) of fractionated enamel protein samples or synthesized peptides dissolved in ultrapure water. After 96 additional hours of incubation, the cells were washed once with PBS, and ALP activity was determined after a 10 min incubation at 37° C. in 10 mM p-nitrophenylphosphate (substrate) in 100 mM 2-amino-2-methyl-1,3-propanediol-HCl buffer (pH 10.0) containing 5 mM MgCl2. After adding 0.2 M NaOH, which stopped the reaction, the absorbance at 405 nm was read on a plate reader.
HPDL cells of approximately 5×10^5 cells per well were distributed in 96-well plates and incubated for 24 h. The growth medium was then changed to contain 10 nM of 1α-25dihydroxy-Vitamin D3 and 50 μg/ml (final concentration) of purified sheath protein or synthesized peptide. After 96 additional hours of incubation, ALP activity was determined using p-nitrophenylphosphate as a substrate.
The bioactivities of these synthetic peptides were tested their cytodifferentiation activity of HPDL cells and ST2 cells by determination of increasing ALP inducing activity on cell culture system. When these peptides applied in cell culture system, the concentration of their peptides was employed around 1 ng/ml. In the case of TGF-1, the concentration was 10 ng/ml.
Normal human periodontal ligament fibroblasts were maintained in an α-minimal essential medium (α-MEM) containing 10% fetal bovine serum, either with or without 10 nM 1α-25dihydroxy-vitamin D3 and 1% antibiotics (100 U/mL of penicillin G and 100 μg/mL of streptomycin sulfate) at 37° C. in a humidified atmosphere of air containing 5% CO2. Another cell line, ST2 cells, was obtained from an osteoblast-like mouse bone marrow stromal cell line. These cells were cultured in the same conditions as those described above.
The ALP inducing activities of synthetic peptides using the cell culture of HPDL cells and ST2 cells were examined. The HPDL cells were distributed in 96-well plates at a density of approximately 5×10^5 cells per well and incubated for 24 h. The medium was then changed to α-MEM containing 10 nM of 1α-25dihydroxy-vitamin D3 and either synthetic peptides or growth factors dissolved in ultra-pure water. After 96 h of incubation, the cells were washed once with phosphate-buffered saline, and 10 mM ρ-nitrophenylphosphate in 100 mM 2-amino-2-methel-1,3-propanediol-HCl buffer (pH 10.0) containing 5 mM MgCl2 was added. The ALP activity was determined after 10 min incubation at 37° C. and the absorbance at 405 nm was read using a plate reader, after adding 0.2 M NaOH to stop the reaction. […] When the synthetic peptides were applied in the cell culture system, their final concentrations were 25 or 50 μg/mL. A TGF-β1 receptor inhibitor (SB431542, 10 μM) was applied to the HPDL cell culture system to examine their influence relative to the ALP inducing activity of the synthetic peptides.

[2] = test system: buccal dehiscence type bone defects created along the roots of the canine mandibular premolars; test: Cementum regeneration (CR) activity, eight-week histological analysis on buccal dehiscence model of dogs; assay type: in vivo, beagle dogs; conditions: for thickness of regenerated cementum: eight weeks following application, measured at 3 points (apical, middle, coronal), beagle dogs; for CR (cementum regeneration) activity: histological analysis eight weeks after application, buccal dehiscence model of dogs
Procedure: Approximately 2-year-old male beagle dogs (approximate 15 kg) were used to detect the CR activities after the applications of several enamel protein samples. They had intact dentition and a healthy periodontium. The surgical preparation of buccal dehiscence type bone defects was carried out according to the modified method of Hammarström (1997) under general anesthesia induced and maintained by an endotracheal tube with 1.5-2.0% of halothane (Takeda Yakuhin Co. LTD, Osaka, Japan) in 100% oxygen, after premedicated with intramuscular injection of the mixture of Ketamine HCl (9.8 mg/kg: Sankyo Co. LTD, Tokyo, Japan) and Xylazine HCl (0.7 mg/kg: Bayer Co. LTD, Tokyo, Japan).
Contralateral buccal mucoperiosteal flaps were raised after an intracrevicular incision extending from the first mandibular premolar to the first mandibular molar. After the removing the buccal alveolar bone plate covering the mesial root of the second premolars, the exposed periodontal ligament and cementum of these areas were completely removed by means of a dental bur. At the apical end of the defect, a notch was created to identify the apical extension of the defect, when histological analyses. The distance between the cervical margin and the apical end of the defect was standardized at about 5 mm. The exposed root dentin surfaces were conditioned for 2 min with cotton pellets soaked in a 19% EDTA solution, and then carefully rinsed with sterile saline. Then 50 μg of each enamel protein sample in 100 μl of cold sterile distilled water was applied over the entire buccal surface area of the exposed roots. Finally, the mucoperiosteal flaps were repositioned to their level prior to surgery and sutured. Distilled water was used as a negative control and EMDOGAIN® (BIORA AB, Malmö, Sweden) served as a positive control.
After 8 weeks the dogs were terminated by anesthetization with sodium pentobarbital. Their heads were fixed by perfusion with 0.1 M sodium cacodylate buffer (pH 7.4) containing 4% paraformaldehyde and 1% glutaraldehyde. Tissue blocks, which included teeth, bone, and tissue were dissected and demineralized in 10% formic acid containing 0.06 M sodium citrate and 0.1 M citric acid. All specimens were dehydrated using a graded series of alcohols and then embedded in paraffin. Serial sections (5 μm thick) were made and stained with hematoxylin/eosin for examination by light microscopy.
The length and thickness of cementums regenerated after application of fractionated and purified enamel protein samples and EMD were measured on the computer monitor of histological results. The length of the regenerated cementum was straight distance between the apical end of the defect and coronal extention of the new cementum, as well as to the crest of the new alveolar bone. Also, the thickness of cementum was measured at coronal end, apical end and between them.
CR promoting activity of enamel proteins obtained at each extracted and purified step were examined by eight-week histological analysis of buccal dehiscence type bone defects created along the roots of canine mandible (FIG. 1).

6 kDa amelogenin: derived from N-terminal side of 20 kDa amelogenin (MPLPPHPGHPGYINFSYEVLTPLKWYQNMIRHPYTSYGYEPMGGW; porcine 6 kDa amelogenin; listed as Sus scrofa)
ALP inducing activity of HPDL cells (amelogenins and peptides based on 6 kDa amelogenin) [1]: activity like TGF-β1; also recorded: strongest ALP inducing activity of HPDL cells

C=C1/C(=C\C=C2/CCC[C@]3(C)[C@@H]([C@H](C)CCCC(C)(C)O)CC[C@@H]23)C[C@@H](O)C[C@@H]1O [1α-25dihydroxy-vitamin D3, reference compound]
levels of ALP activity of HPDL cells by addition of 1α-25dihydroxy-vitamin D3 ([1]; 10 nM, with application of ESP synthetic peptides or TGF-β1): enhanced and stabilized

NC(=O)c1ccc(-c2nc(-c3ccc4c(c3)OCO4)c(-c3ccccn3)[nH]2)cc1 [SB431542, reference compound]
ALP inducing activity of HPDL cells when adding TGF-β1 receptor inhibitor SB431542 ([1]; 10 μM SB431542, 10 nM 1α-25dihydroxy-vitamin D3): significantly inhibited the activity of TGF-β1

A-1-1: shorter peptide synthesized based on the sequence of A-1 (MPLPPH; 6 aa from 1 to 6 in sequence 9, 14, 33 and 34; listed as Homo sapiens)
concentration at which the peptide promotes the bioactivity (ALP inducing activity of HPDL cells), high concentration ([1]; cell culture system): 1 µg/mL | ALP inducing activity of HPDL cells (amelogenins and peptides based on 6 kDa amelogenin) [1]: promote ALP inducing activity | ALP inducing activity of HPDL cells (amelogenins and peptides based on 6 kDa amelogenin) ([1]; listed as SEQ ID NO: 6): had ALP inducing activity

A-1-2: shorter peptide synthesized based on the sequence of A-1 (PGHPGY; 6 aa from 7 to 12 in sequence 9, 14, 33 and 34; listed as Homo sapiens)
concentration at which the peptide promotes the bioactivity (ALP inducing activity of HPDL cells), low concentration ([1]; cell culture system): 10 ng/mL | ALP inducing activity of HPDL cells (amelogenins and peptides based on 6 kDa amelogenin) [1]: promote ALP inducing activity

A-1: N-terminal side peptide synthesized based on the sequence of 6 kDa amelogenin (MPLPPHPGHPGYINF; 15 aa from 1 to 15 in sequence 14, 33 and 34; listed as Homo sapiens)
ALP inducing activity of HPDL cells (amelogenins and peptides based on 6 kDa amelogenin) [1]: showed the strong bioactivity

C-1: 15-residue peptide, position 132-146 of porcine 17 kDa sheath protein (VEGPMVQQQVAPSEK; 15 aa from 132 to 146 in sequence 10; listed as Sus scrofa)
ALP activity of HPDL cells (porcine sheath proteins and synthetic peptides) ([1]; 96 h): not so strong; also recorded: enhanced the ALP activity of the HPDL cells

SDKPPKPELPVDF (13 aa from 144 to 156 in sequence 36; listed as Homo sapiens) [H-2′]
ALP inducing activity of HPDL cells (Example 4) ([1]; peptides 50 μg/mL, TGF-β1 1 ng/mL, BMP-2 1 μg/mL, 10 nM 1α-25dihydroxy-vitamin D3, 96 h): showed the same inductive properties

B1: 15 kDa sheath protein: N-terminal cleavage product of sheathlin containing 130 amino acids, lacks C-terminal 40 amino acids of 17 kDa sheath protein (protein)
chain: VPAFPRQPGTPGVASLSLETMRQLGSLQGLNMLSQYSRFGFGKSFNSLWMHGLLPPHSSFQWMRPREHETQQYEYSLPVHPPPLPSQPSLQPQQPGQKPFLQPTVVTSIQNPVQKGVPQPPIYQGHPPLQ
thickness of regenerated cementum [2]: 8.13±2.06 μm | CR (cementum regeneration) activity [2]: scarce CR activity | ALP activity of HPDL cells (porcine sheath proteins and synthetic peptides) ([1]; 96 h): showed the increase of ALP inducing activity than that of 13 kDa sheath protein | ALP activity of HPDL cells (porcine sheath proteins and synthetic peptides) ([1]; 96 h, listed as 15-kDa sheath protein): not

B2: 17 kDa sheath protein: Porcine 17 kDa sheath protein, N-terminal cleavage product of sheathlin containing 170 amino acids (protein, listed as Sus scrofa)
chain: VPAFPRQPGTPGVASLSLETMRQLGSLQGLNMLSQYSRFGFGKSFNSLWMHGLLPPHSSFQWMRPREHETQQYEYSLPVHPPPLPSQPSLQPQQPGQKPFLQPTVVTSIQNPVQKGVPQPPIYQGHPPLQQVEGPMVQQQVAPSEKPPEAELPGLDFADPQDPSMFPIAR
modifications: porcine sheath protein
notes: Porcine 17 kDa sheath protein, N-terminal cleavage product of sheathlin containing 170 amino acids
thickness of regenerated cementum [2]: 31.77±3.78 μm | CR (cementum regeneration) activity [2]: induced a thick acellular cementum; also recorded: induced thick acellular cementum near the apical end of the defect, but the CR was scarce near the coronal end; also recorded: induced a smaller area of cementum regeneration; also recorded: exhibited the CR activity | CR (cementum regeneration) activity ([2]; listed as 17 kDa ESP): stronger cementum regeneration promoting activity | ALP activity of HPDL cells (porcine sheath proteins and synthetic peptides) ([1]; 96 h): enhanced | ALP activity of HPDL cells (porcine sheath proteins and synthetic peptides) ([1]; 96 h, listed as 17 kDa ESP): weaker than that of TGF-β1

B3: 25 kDa amelogenin: most abundant uncleaved porcine amelogenin polypeptide (protein, UniProt P45561 17-189, looked up)
Amelogenin: MPLPPHPGHPGYINFSYEVLTPLKWYQNMIRHPYTSYGYEPMGGWLHHQIIPVVSQQTPQSHALQPHHHIPMVPAQQPGIPQQPMMPLPGQHSMTPTQHHQPNLPLPAQQPFQPQPVQPQPHQPLQPQSPMHPIQPLLPQPPLPPMFSMQSLLPDLPLEAWPATDKTKREEVD
ALP inducing activity of HPDL cells (amelogenins and peptides based on 6 kDa amelogenin) [1]: activity like TGF-β1

— patent publication US8309140B2, “Effect of porcine sheath proteins on the regeneration activity of periodontal ligament” (priority 2005, dated 2012)
